# From ChEMBL document CHEMBL4325861, “Naphthalene, a versatile platform in medicinal chemistry: Sky-high perspective” (Eur J Med Chem, 2019)
# Experiments:
# [1] = biological target: Prostaglandin G/H synthase 2 (Homo sapiens, UniProt P35354); assay: Inhibition of COX2 (unknown origin)
# [2] = biological target: Protein farnesyltransferase (Homo sapiens, UniProt P49354+P49356); assay: Inhibition of FTase (unknown origin) assessed as reduction in transfer of [3H]FPP to Ki-Ras; assay type: protein-complex assay
# [3] = biological target: Chymase (Homo sapiens, UniProt P23946); assay: Inhibition of chymase in human mast cells using Suc-Ala-Ala-Pro-Phe-(p-nitroanilide) as substrate for 15 mins by spectrophotometric method; assay type: cell-based
# Chain of Chymase (P23946 whole entry): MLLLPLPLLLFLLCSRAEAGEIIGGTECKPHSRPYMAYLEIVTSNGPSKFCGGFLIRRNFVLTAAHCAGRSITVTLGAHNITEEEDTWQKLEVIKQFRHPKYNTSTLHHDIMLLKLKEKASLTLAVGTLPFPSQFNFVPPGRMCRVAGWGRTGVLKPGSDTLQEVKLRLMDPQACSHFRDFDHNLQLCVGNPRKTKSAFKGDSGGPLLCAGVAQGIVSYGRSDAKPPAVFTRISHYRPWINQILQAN
# [4] = tested on: HL-60; assay: Antiproliferative activity against human HL60 cells; assay type: functional, cell-based
# [5] = tested on: P388; assay: Antiproliferative activity against mouse P388 cells; assay type: functional, cell-based
# [6] = Antiproliferative activity against human MEL28 cells; assay type: functional, cell-based; conditions: SK-MEL-28
# [7] = tested on: HT-29; assay: Antiproliferative activity against human HT-29 cells; assay type: functional, cell-based
# [8] = tested on: A549; assay: Antiproliferative activity against human A549 cells; assay type: functional, cell-based
# [9] = tested on: Pichia kudriavzevii; assay: Antifungal activity against Candida krusei; assay type: functional
# [10] = biological target: Prostaglandin G/H synthase 2 (Homo sapiens) (UniProt P35354); assay: Inhibition of COX2 (unknown origin) at 10 uM relative to control
# Chain of Prostaglandin G/H synthase 2 (Homo sapiens) (P35354 whole entry): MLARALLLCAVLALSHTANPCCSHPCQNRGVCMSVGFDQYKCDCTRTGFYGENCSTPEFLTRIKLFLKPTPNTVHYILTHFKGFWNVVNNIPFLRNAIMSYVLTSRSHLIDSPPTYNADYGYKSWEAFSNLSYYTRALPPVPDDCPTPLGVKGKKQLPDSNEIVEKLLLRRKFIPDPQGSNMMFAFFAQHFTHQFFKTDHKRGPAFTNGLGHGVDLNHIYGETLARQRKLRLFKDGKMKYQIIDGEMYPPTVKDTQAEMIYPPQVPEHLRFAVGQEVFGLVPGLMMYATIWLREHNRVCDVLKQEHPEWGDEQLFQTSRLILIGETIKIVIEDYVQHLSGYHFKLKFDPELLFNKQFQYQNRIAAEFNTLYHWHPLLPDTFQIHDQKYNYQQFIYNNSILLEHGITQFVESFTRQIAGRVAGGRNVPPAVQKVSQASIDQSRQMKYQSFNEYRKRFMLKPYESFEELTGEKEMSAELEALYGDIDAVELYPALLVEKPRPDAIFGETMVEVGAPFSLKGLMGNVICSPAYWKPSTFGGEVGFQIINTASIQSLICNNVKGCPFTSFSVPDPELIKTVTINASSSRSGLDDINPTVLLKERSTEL
# [11] = biological target: Prostaglandin G/H synthase 1 (Homo sapiens) (UniProt P23219); assay: Inhibition of COX1 (unknown origin) at 10 uM relative to control
# Chain of Prostaglandin G/H synthase 1 (Homo sapiens) (P23219 whole entry): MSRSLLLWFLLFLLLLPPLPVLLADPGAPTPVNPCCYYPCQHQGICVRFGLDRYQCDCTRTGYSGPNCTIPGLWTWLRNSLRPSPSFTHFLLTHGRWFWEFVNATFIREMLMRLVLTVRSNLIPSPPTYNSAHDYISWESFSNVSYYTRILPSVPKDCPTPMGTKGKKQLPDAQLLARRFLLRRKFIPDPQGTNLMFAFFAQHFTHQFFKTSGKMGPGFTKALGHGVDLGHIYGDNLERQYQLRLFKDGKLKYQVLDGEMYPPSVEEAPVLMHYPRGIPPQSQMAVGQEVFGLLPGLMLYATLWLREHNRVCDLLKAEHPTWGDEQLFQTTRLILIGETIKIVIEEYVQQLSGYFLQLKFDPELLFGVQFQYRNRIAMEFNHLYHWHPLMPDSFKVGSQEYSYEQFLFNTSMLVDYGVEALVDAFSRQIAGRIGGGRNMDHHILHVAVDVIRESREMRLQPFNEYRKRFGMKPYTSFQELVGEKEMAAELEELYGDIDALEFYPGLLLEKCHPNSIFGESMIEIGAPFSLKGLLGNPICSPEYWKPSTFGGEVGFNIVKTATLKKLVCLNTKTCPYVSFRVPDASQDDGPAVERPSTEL
# [12] = tested on: THP-1; assay: Anti-inflammatory activity in human THP1 cells assessed as reduction in TNF production; assay type: functional, cell-based
# [13] = tested on: Staphylococcus aureus; assay: Antibacterial activity against Staphylococcus aureus; assay type: functional
# [14] = tested on: Candida albicans; assay: Antifungal activity against Candida albicans; assay type: functional
# [15] = Induction of apoptosis in human NB4.437r cells by Annexin V/propidium iodide staining based flow cytometry; assay type: functional, cell-based
# [16] = tested on: HepG2; assay: Antiproliferative activity against human HepG2 cells; assay type: functional, cell-based
# [17] = biological target: Angiotensin II receptor (Homo sapiens, UniProt P30556+P50052); assay: Antagonist activity at angiotensin-2 receptor (unknown origin); assay type: protein assay
# [18] = tested on: Rattus norvegicus; assay: Anti-inflammatory activity in rat assessed as inhibition of carrageenan-induced paw edema relative to control; assay type: functional
# [19] = tested on: HeLa; assay: Antiproliferative activity against human HeLa cells; assay type: functional, cell-based
# [20] = Inhibition of Human cytomegalovirus protease; parameters: species or system Human betaherpesvirus 5
# [21] = tested on: Mycobacterium tuberculosis; assay: Antimycobacterial activity against Mycobacterium tuberculosis H37Ra; assay type: functional
# [22] = tested on: Human immunodeficiency virus 1; assay: Antiviral activity against HIV1 infected in human MT4 cells; assay type: functional, organism-based; conditions: Human immunodeficiency virus 1, MT4
# [23] = tested on: Mycobacterium tuberculosis; assay: Antimycobacterial activity against Mycobacterium tuberculosis; assay type: functional
# [24] = tested on: MT4; assay: Antiproliferative activity against human MT4 cells; assay type: functional
# [25] = Inhibition of Norovirus RNA-dependent RNA polymerase
# [26] = tested on: Aspergillus niger; assay: Antifungal activity against Aspergillus niger by disk diffusion method; assay type: functional
# [27] = tested on: Mycobacterium avium; assay: Antimycobacterial activity against Mycobacterium avium; assay type: functional
# [28] = tested on: Human immunodeficiency virus 1; assay: Antiviral activity against HIV1; assay type: functional, organism-based
# [29] = tested on: Cryptococcus neoformans; assay: Antifungal activity against Cryptococcus neoformans; assay type: functional
# [30] = tested on: Staphylococcus aureus; assay: Antibacterial activity against Staphylococcus aureus assessed as zone of inhibition; assay type: functional
# [31] = tested on: Alternaria alternata; assay: Antifungal activity against Alternaria alternata assessed as zone of inhibition; assay type: functional
# [32] = tested on: Mycobacterium tuberculosis; assay: Antimycobacterial activity against Mycobacterium tuberculosis H37Rv; assay type: functional, organism-based
# [33] = tested on: Neutrophil; assay: Anti-inflammatory activity in human neutrophils assessed as inhibition of fMLP/cytochalasin B-induced elastase release preincubated for 5 mins followed by fMLP/cytochalasin B addition; assay type: functional, cell-based
# [34] = tested on: Neutrophil; assay: Anti-inflammatory activity in human neutrophils assessed as inhibition of fMLP/cytochalasin B-induced superoxide anion generation preincubated for 5 mins followed by fMLP/cytochalasin B addition and measured after 10 mins by spectrophotometric method; assay type: functional, cell-based
# [35] = tested on: Rattus norvegicus; assay: Anti-inflammatory activity in rat assessed as inhibition of carrageenan-induced paw edema after 4 hrs relative to control; assay type: functional
# [36] = tested on: Rattus norvegicus; assay: Anti-inflammatory activity in Wistar albino rat assessed as inhibition of carrageenan-induced paw edema at 100 mg/kg, po via gavage measured after 1 hr by plethysmometric method relative to control; assay type: functional
# Chain of Prostaglandin G/H synthase 2 (P35354 whole entry): as the sequence (P35354 whole entry) above
smiles,measurement,setting,value
CS(=O)(=O)Nc1cc(Cc2ccc(Cl)cc2)c2ccccc2c1,IC50,[1],10 µM
CSCC[C@H](NC(=O)c1cccc2cc(NC[C@@H](N)CS)ccc12)C(=O)O,IC50,[2],0.017 µM
O=C(c1ccc2ccccc2c1)C(c1cccc2ccccc12)P(=O)(O)O (centres undefined),Ki,[3],0.0023 µM
COc1ccc2[nH]c3c(c2c1)C(=O)c1ccccc1C3=O,IC50,[4],45.4 µM
CN(C)CCNC(=O)c1cc2c3c(cccc3c1)Sc1ccccc1-2,IC50,[5],0.176 µM
COc1ccc(/C=C/c2ccc3ccccc3c2)cc1O,IC50,[6],5.4 µM
same,IC50,[7],5.4 µM
same,IC50,[5],6.4 µM
same,IC50,[8],7.4 µM
Sc1nnc(COc2ccc3ccccc3c2)o1,MIC,[9],64 µg/mL
COc1ccc2cc(CCS(C)(=O)=O)ccc2c1,inhibition,[10],65%
same,IC50,[1],10 µM
same,inhibition,[11],29%
CSc1ncc(-n2nc(C(C)C)cc2NC(=O)Nc2ccc(-c3ccc(CN(C)C)nc3)c3ccccc23)cn1,IC50,[12],< 10 µM
CN1CCC(N)CC1c1ccc(-c2ccc(N)c3ccccc23)cn1 (centres undefined),IC50,[12],< 10 µM
C(=C\c1ccc2ccccc2c1)/c1ccc2ccccc2c1,IC50,[6],5.4 µM
same,IC50,[7],5.4 µM
same,IC50,[5],6.4 µM
same,IC50,[8],7.4 µM
COc1cc(/C=C\c2ccc3ccccc3c2)cc(OC)c1OC [NAPHTHYLCOMBRETASTATIN],IC50,[6],5.4 µM
same,IC50,[7],5.4 µM
same,IC50,[5],6.4 µM
same,IC50,[8],7.4 µM
COc1ccc(/C=C\c2ccc3ccccc3c2)cc1O,IC50,[6],5.4 µM
same,IC50,[7],5.4 µM
same,IC50,[5],6.4 µM
same,IC50,[8],7.4 µM
CN(C)CCNC(=O)c1cc2c3ccccc3sc2c2ccccc12,IC50,[5],0.428 µM
CC(=O)Oc1ccc2c(c1)c1c(n2CCN(C)C)C(=O)c2ccccc2C1=O,IC50,[4],0.17 µM
CC(C)c1cccc(OC(=O)Nc2ccc(-c3ccc(CN4CCOCC4)nc3)c3ccccc23)c1,IC50,[12],< 10 µM
Nc1ccc(-c2ccc(CC3CCOC3)c(O)c2)c2ccccc12 (centres undefined),IC50,[12],< 10 µM
CC(C)NC(=N)c1ccc2c(c1)nc(-c1ccc3c(c1)C(C)(C)CCC3(C)C)n2Cc1ccc2ccccc2c1,MIC,[13],0.78 µg/mL
same,MIC,[14],0.78 µg/mL
O=C(O)c1ccc2cc(-c3ccc(O)c(C45CC6CC(CC(C6)C4)C5)c3)ccc2c1 [O-DEMETHYLATED ADAPALENE],EC50,[15],11.9 µM
COc1cc(OC)c(C2=CCN(C)CC2)c(O)c1C(=O)/C=C/c1cccc2ccccc12,IC50,[16],6.5 µM
N#CCCCOc1ccc(-c2ccc(N)c3ccccc23)cn1,IC50,[12],< 10 µM
CCC(Cl)Cc1nc(CO)cn1Cc1ccc2cc(-c3nnn[nH]3)ccc2c1 (centres undefined),IC50,[17],0.2 µM
COc1cc(OC)c(C2=CCN(C)CC2)c(O)c1C(=O)/C=C/c1ccc2ccccc2c1,IC50,[16],6.5 µM
CC(=O)Oc1ccc2c(c1)c1c(n2C)C(=O)c2ccccc2C1=O,IC50,[4],1.01 µM
COc1ccccc1C1CC(Nc2ccc3ccccc3c2)=NN1C(C)=O (centres undefined),inhibition (INH),[18],67.85%
O=C1c2cccc3cc([N+](=O)[O-])cc(c23)C(=O)C1CN1CCCC1 (centres undefined),IC50,[19],0.3 µg/mL
C(=C/c1ccc2ccccc2c1)/c1ccc2ccccc2c1,IC50,[6],5.4 µM
same,IC50,[7],5.4 µM
same,IC50,[5],6.4 µM
same,IC50,[8],7.4 µM
O=C(O)c1ccc(CNc2ccc3c(/C=C/c4ccc5ccc(Cl)cc5n4)cccc3c2)cc1,IC50,[20],2.7 µM
O=C1C(O)=C(C(Nc2ccccn2)c2ccccc2O)C(=O)c2ccccc21 (centres undefined),MIC,[21],25 µg/mL
O=C(COc1ccc2ccccc2c1)NCc1nnc(SCc2nc3ccccc3[nH]2)n1-c1ccccc1,EC50,[22],0.2 µg/mL
CN(C)CCOc1ccc2c(c1)c1c(n2C)C(=O)c2ccccc2C1=O,IC50,[4],0.28 µM
COc1ccc2c(c1)CCC(NS(C)(=O)=O)C2 (centres undefined),inhibition,[10],50%
same,inhibition,[11],87%
COc1nc2ccc(Br)cc2cc1[C@H](c1ccccc1)N(C(=O)CN1CCOCC1)[C@@H](C)c1cccc2ccccc12,MIC,[23],60 µg/mL
COC(=O)C(NC(=O)COc1ccc2ccccc2c1)C(C)C (centres undefined),CC50,[24],42 µM
Cc1nc(/N=N/c2cc(S(=O)(=O)O)c3cc([N+](=O)[O-])cc(S(=O)(=O)O)c3c2)cc(C=O)c1O,IC50,[25],0.45 µM
COc1nc2ccc(Br)cc2cc1[C@@H](c1ccccc1)[C@@](O)(CCN(C)C)c1cccc2ccccc12 [BEDAQUILINE],MIC,[23],0.06 µg/mL
c1ccc(-c2ccc3c(c2)CCCC3)cc1,MIC,[26],780 µg/mL
O=C(Nc1cccc(F)c1)c1cccc2ccccc12,MIC,[27],59 µM
CC(C)C(NC(=O)COc1ccc2ccccc2c1)C(=O)NN (centres undefined),EC50,[28],42 µg/mL
NS(=O)(=O)c1ccc2c(c1)-c1nnsc1CC2,MIC,[29],0.53 µg/mL
Nc1cccc2cccc(/N=C3/CCC/C(=N\c4cccc5cccc(N)c45)C3)c12,inhibition zone (IZ),[30],10 mm
same,inhibition zone (IZ),[31],10.5 mm
O=C1c2cccc3cc([N+](=O)[O-])cc(c23)C(=O)C1CN1CCCCC1 (centres undefined),IC50,[19],2 µg/mL
O=C(Cc1cccc2c1CCCC2)N/N=C/c1ccc(O)c([N+](=O)[O-])c1,IC50,[32],3.07 µg/mL
O=[N+]([O-])c1ccc2c(c1)-c1nnsc1CC2,MIC,[29],0.53 µg/mL
CN(C)CC1C(=O)c2cccc3cc([N+](=O)[O-])cc(c23)C1=O (centres undefined),IC50,[19],0.15 µg/mL
Nc1nnc(COc2cccc3ccccc23)o1,MIC,[9],64 µg/mL
O=C(CCNc1c(Br)cc(Br)cc1C(=O)O)Nc1ccc2ccccc2c1,inhibition (INH),[18],67.37%
CC(=O)c1ccnc(C2=CC(=O)c3ccccc3C2=O)c1,MIC,[32],3.13 µg/mL
COc1cc2c3c([nH]c2cc1Cl)C(=O)c1ccccc1C3=O,IC50,[4],53.1 µM
COc1ccc2cc([C@H](C)C(=O)O)ccc2c1 [NAPROXEN],inhibition (INH),[18],85.02%
COc1cc(C(C)=O)c(O)c2ccc(O)cc12,IC50,[33],3.17 µg/mL
same,IC50,[34],1.9 µg/mL
COc1ccccc1NC(=O)c1cccc2ccccc12,MIC,[27],54 µM
O=c1[nH]nc(COc2cccc3ccccc23)o1,MIC,[9],64 µg/mL
Nc1ccc(-c2ccc(Cc3cccnc3)c(O)c2)c2ccccc12,IC50,[12],< 10 µM
Oc1c(C2=NNC(c3ccc(Br)cc3)C2)ccc2ccccc12 (centres undefined),inhibition (INH),[35],68.96%
COc1ccc2cc(-c3nnc(-c4cc(Cl)cc(Cl)c4)o3)ccc2c1,inhibition in vivo at 100 mg/kg,[36],71.1%
COc1cc(/C=C/c2ccc3ccccc3c2)cc(OC)c1OC,IC50,[6],5.4 µM
same,IC50,[7],5.4 µM
same,IC50,[5],6.4 µM
same,IC50,[8],7.4 µM
CCN(CC)CC1C(=O)c2cccc3cc([N+](=O)[O-])cc(c23)C1=O (centres undefined),IC50,[19],2.5 µg/mL
CC(=O)Oc1ccc2[nH]c3c(c2c1)C(=O)c1ccccc1C3=O,IC50,[4],1.31 µM
COc1ccc2cc(C(C)C(=O)NC(=S)Nc3ccc(CS(=O)(=O)Nc4cc(C)on4)cc3)ccc2c1 (centres undefined),inhibition (INH),[18],89.77%
